Measurements taken from paper PMC10489817, “2-Alkyl-Substituted-4-Amino-Thieno[2,3-d]Pyrimidines: Anti-Proliferative Properties to In Vitro Breast Cancer Models” (Molecules, 2023).
Several values for one entry are separate records, joined by “and”; a condition that tells them apart may be missing. Identical values can stand only once. Like-named read-outs stand apart in the source and are kept apart here.

What was measured:
MDA-MB-231 [1] = assay: MTT anti-proliferative test, MDA-MB-231; assay type: cell-based, human; conditions: for SI (selective index) MDA-MB-231: IC50 MCF-10A/IC50 MDA-MB-231
Description: (§1) The MCF-10A cell line (normal human mammary epithelial cells) served as a reference control.
(§2) All breast cell lines (MCF-10A, MCF-7, and MDA-MB-231) were purchased from the American Type Culture Collection—ATCC (Manassas, VA, USA). The MCF-7 and MDA-MB-231 were cultivated in Dulbecco’s modified Eagle’s medium (DMEM) and supplemented with 10% fetal bovine serum (FBS), 1% sodium pyruvate, and 1% MEM non-essential amino acids (NEAA) without antibiotics. The non-tumorigenic breast cell line (MCF-10A) was cultivated in DMEM medium (Sigma-Aldrich, St. Louis, MO, USA) and supplemented with 10% FBS, 1% sodium pyruvate, 1% non-essential amino acids (NEAA), 20 ng/mL human epithelia growth factor (hEGF), 10 μg/mL insulin, and 0.5 μg/mL hydrocortisone without antibiotics. All cell lines were maintained in a humidified atmosphere, with 5% CO2 at 37 °C.
(§3) Using the standard MTT-dye reduction assay described by Mosmann, the anti-proliferative activity was tested. The method is based on the metabolism of the tetrazolium salt MTT to insoluble formazan. The formazan absorption was registered using a microplate reader at λ = 540 nm. The measured absorption is an indicator of cell viability and metabolic activity. Anti-proliferative activities were expressed as IC50 values (concentrations required for 50% inhibition of cell growth), calculated using non-linear regression analysis (GraphPad Software, San Diego, CA, USA).

MCF-10A [2] = assay: MTT anti-proliferative test, MCF-10A; assay type: cell-based; conditions: Homo sapiens
Description: as §1, §2, §3

MCF-10A [3] = assay: Cell cycle analysis by propidium iodide staining, MCF-10A; assay type: cell-based, human; conditions: for change of %G1 vs control, MCF-10A / change of %G2 vs control, MCF-10A / change of %S vs control, MCF-10A: control = 100%, 24 h; for %G1, MCF-10A / %G2, MCF-10A / %S, MCF-10A: treated at IC50, 24 h
Method: (§4) Our study continued with the examination of the effect of the newly synthesized compounds’ IC50 values on cell cycle progression. The cell aliquots were collected, and FACS analyses were used to detect the effects of cell treatments with the selected compounds (2, 4, and 5). A propidium iodide staining assay was performed.
(§5) The changes in the cell cycle distribution in % (G1, S, and G2 phases), based on the graphical figures A–C, were calculated and are given in Table 4.
(§6) The cells were trypsinized, suspended in medium + 10% FCS, and centrifuged (1000 rpm, 5 min); then, the pellet was suspended in PBS (1 mL) and fixed with EtOH. The cells were suspended in 2.5 mL pre-cold 70% EtOH and incubated on ice for 15 min. The staining procedure was as follows: the pellet was suspended in a 500 μL PI-solution in PBS and 0.1 mg/mL RNase A, and 0.05% Triton X-100 was added. After incubation for 10 min at 37 °C, the cells were transferred to the flow cytometer and cell fluorescence was measured. The samples were measured by flow cytometry (LSR II, BD Biosciences, Franklin Lakes, NJ, USA) and analyzed using BD FACS DIVA software v. 6.1.3 (BD Biosciences).

MCF-10A [4] = assay: ζ-potential measurement, MCF-10A; assay type: cell-based, human; conditions: PBS pH 7.4, 37 °C; more negative after treatment
Method: (§7) First, the ζ-potential of each cell line was measured, and all obtained values were negative (Figure 6A). The Student t-test statistical analysis which was applied distinguished the ζ-potentials of the three studied cell lines with p < 0.05, and the values followed the order of MCF-7 > MDA-MB-231 > MCF-10A. […] represents the relative percentage change of the ζ-potential induced by the studied compounds for the different cell lines. Compound 2 was able to decrease the ζ-potential of the cells with the following ranking: MCF-7 (42%) > MCF-10A (24%) > MDA-MB-231 (16%). For compound 4, the ranking was as follows: MCF-10A (50%) > MDA-MB-231 (46%) > MCF-7 (3%). For compound 5, this was MCF-10A (36%) > MCF-7 (22%) > […].
(§8) The zeta (ζ ξ) potential is the electrostatic potential at the shear plane of a cell, and is related to both its surface charge and the local environment. The ζ-potential of the intact cells and the treated ones was recorded in a cell suspension (0.5 × 10^6 cells/mL) in PBS, using the electrophoretic light-scattering technique on a Zetasizer Nano ZS analyzer (Malvern Instruments, Great Britain). Laser Doppler electrophoresis and velocimetry of cells were used to determine the ζ-potential by measuring the speeds of the cells in PBS upon the application of an electric field. The ζ-potential was calculated based on the Helmholtz–Smoluchowski equation. The measurements were performed in a U-shaped cell with gold-plated electrodes at 37 °C.
(§9) Figure 6 ζ-potential of the investigated cell lines, MCF-10A, MCF-7, and MDA-MB-231 (A). Alterations in the ζ-potential after treatment with compounds 2 (pink), 4 (blue), and 5 (green) (B). All zeta potential values were measured in PBS buffer (137 mM NaCl, 2.7 mM KCl, 8 mM Na2HPO4, and 2 mM KH2PO4; pH 7.4) at 37 °C. Two independent experiments were carried out for each cell line, and each sample was measured 6 times. (*; ***) denote p < 0.05 and p < 0.001 as follows. […]

MDA-MB-231 [5] = assay: ζ-potential measurement, MDA-MB-231; assay type: cell-based, human; conditions: PBS pH 7.4, 37 °C; more negative after treatment
Method: as §7, §8, §9

MCF-7 [6] = assay: ζ-potential measurement, MCF-7; assay type: cell-based, human; conditions: PBS pH 7.4, 37 °C; more negative after treatment
Method: as §7, §8, §9

MCF-7 [7] = assay: Cell cycle analysis by propidium iodide staining, MCF-7; assay type: cell-based, human; conditions: for cell cycle arrest phase, MCF-7: ER positive cell line; for change of %G1 vs control, MCF-7 / change of %G2 vs control, MCF-7 / change of %S vs control, MCF-7: control = 100%, 24 h; for %G1, MCF-7 / %G2, MCF-7 / %S, MCF-7: treated at IC50, 24 h
Method: as §4, §5, §6

[8] = Homo sapiens, MDA-MB-231, MTT, read-out: IC50 MDA-MB-231 (converted)
[9] = Homo sapiens, MDA-MB-231, MTT, read-out: IC50 MDA-MB-231 (text)
[10] = Homo sapiens, MDA-MB-231, MTT, read-out: IC50 of Mean ± SD, Anti-Proliferative Activity MDA-MB-231
[11] = MTT, read-out: IC50 MDA-MB-231 (converted)
[12] = read-out: IC50 MCF-10A (converted)
[13] = read-out: IC50 of Mean ± SD, Anti-Proliferative Activity MCF-10A

| SMILES | IC50 (MDA-MB-231 [1]; [8]) [µM] | IC50 (MDA-MB-231 [1]; [10]) [µg/mL] | SI (selective index) MDA-MB-231 (MDA-MB-231 [1]) | IC50 (MDA-MB-231 [1]; [11]) [µM] | IC50 (MCF-10A [2]; [12]) [µM] | IC50 (MCF-10A [2]; [13]) [µg/mL] | change of %G1 vs control, MCF-10A (MCF-10A [3]) | change of %G2 vs control, MCF-10A (MCF-10A [3]) | change of %S vs control, MCF-10A (MCF-10A [3]) [%] | %G1, MCF-10A (MCF-10A [3]) [%] | %G2, MCF-10A (MCF-10A [3]) [%] | %S, MCF-10A (MCF-10A [3]) [%] | Δζ/ζ relative change of ζ-potential, MCF-10A (MCF-10A [4]) | Δζ/ζ relative change of ζ-potential, MDA-MB-231 (MDA-MB-231 [5]) | Δζ/ζ relative change of ζ-potential, MCF-7 (MCF-7 [6]) | cell cycle arrest phase, MCF-7 (MCF-7 [7]) | change of %G1 vs control, MCF-7 (MCF-7 [7]) | change of %G2 vs control, MCF-7 (MCF-7 [7]) | change of %S vs control, MCF-7 (MCF-7 [7]) [%] | %G1, MCF-7 (MCF-7 [7]) [%] | also measured |
| --- | --- | --- | --- | --- | --- | --- | --- | --- | --- | --- | --- | --- | --- | --- | --- | --- | --- | --- | --- | --- | --- |
| CCOC(=O)Cc1nc(N)c2c(C)c(C(=O)OCC)sc2n1 [Compound 2, Ethyl 4-Amino-2-(2-Ethoxy-2-Oxoethyl)-5-Methylthieno[2,3-d]Pyrimidine-6-Carboxylate] | 170 | 52.6 ± 3.2 | 9.6 | 160 | 1700 | 503 ± 16.7 | +5.439% | −6.42% | −20.8 | 85.9 | 6.55 | 7.328 | 24.27% and 24% | 16.04% and 16% | 42.14% and 42% | arrest was detected in the G1 phase | +11.1% | +7.75% | −7.65 | 44.9 | IC50 (MDA-MB-231 [1]; [9]): 52.6 µg/mL; %G2, MCF-7 (MCF-7 [7]): 10.7%; %S, MCF-7 (MCF-7 [7]): 39.8% |
| CCOC(=O)c1sc2nc(CC)nc(N)c2c1C [Compound 4, Ethyl 4-Amino-2-Ethyl-5-Methylthieno[2,3-d]Pyrimidine-6-Carboxylate] | 200 | 62.9 ± 5.7 | 5.8 | 240 | 1400 | 367 ± 17.8 | +4.9% | +15.4% | −29.0 | 85.5 | 8.108 | 6.53 | 50.48% and 50% | 45.51% and 46% | 3.35% and 3% | arrest was detected in the G1 phase | +20% | −22.55% | −8.35 | 48.5 | IC50 (MDA-MB-231 [1]; [9]): 62.9 µg/mL; %G2, MCF-7 (MCF-7 [7]): 7.769%; %S, MCF-7 (MCF-7 [7]): 39.5% |
| CCOC(=O)c1sc2nc(C)nc(N)c2c1C [Compound 5, Ethyl 4-Amino-2,5-Dimethyl-Thieno[2,3-d]Pyrimidine-6-Carboxylate] | 1500 | 365 ± 26.6 | 1.7 | 1450 | 2500 | 618 ± 29.7 | +5.52% | +24.657% | −13.9 | 86 | 8.72 | 7.92 | 35.94% and 36% | 23.31% and 23% | 22.27% and 22% | arrest was detected in the G1 phase | +20.54% | −15.7% | −10.2 | 48.7 | %G2, MCF-7 (MCF-7 [7]): 8.40%; %S, MCF-7 (MCF-7 [7]): 38.7% |
